Converted amounts (≈) assume the structure as drawn. Like-named read-outs stand apart in the source and are kept apart here. Ends that are not written are not given here.
Columns and labels:
MRSA T144 = test: MIC/MBC, broth micro-dilution; format: cell-based, Staphylococcus aureus
Experimental: (§1) Experiments were performed with two biological replicates.

E. faecalis A4 (VRE) = test: MIC/MBC, broth micro-dilution; format: cell-based
Experimental: as §1

E. coli 1F28 (tet(X4)) = test: MIC/MBC, broth micro-dilution; format: cell-based
Experimental: as §1

E. coli B3-1 (tet(X4)) = test: MIC/MBC, broth micro-dilution; format: cell-based
Experimental: as §1

E. coli ATCC 25922 = test: microbe, parasite or virus in culture; format: cell-based
Experimental: as §1

[1] = system: S. aureus 215 (cfr + LZD^R); test: microbe, parasite or virus in culture; format: cell-based; conditions: 18 h
Experimental: as §1

[2] = system: MDR E. coli B2 (mcr-1 + blaNDM-5); test: microbe, parasite or virus in culture; format: cell-based
Experimental: as §1

S. aureus ATCC 29213 = test: microbe, parasite or virus in culture; format: cell-based
Experimental: as §1

[3] = system: S. enteritidis ATCC 13076; test: microbe, parasite or virus in culture; format: cell-based
Experimental: as §1

E. coli 1N28 = test: MIC, tigecycline-resistant clinical isolate; format: cell-based
Experimental: as §1

E. coli 2A19 = test: MIC, tigecycline-resistant clinical isolate; format: cell-based
Experimental: as §1

E. coli 1F16 = test: MIC, tigecycline-resistant clinical isolate; format: cell-based
Experimental: as §1

Shigella 1F25 = test: MIC, tigecycline-resistant clinical isolate; format: cell-based; conditions: Shigella 1F25, feces, broth micro-dilution
Experimental: as §1

E. coli 1F31 = test: MIC, tigecycline-resistant clinical isolate; format: cell-based
Experimental: as §1

E. coli 1C1 = test: MIC, tigecycline-resistant clinical isolate; format: cell-based
Experimental: as §1

E. coli 1A34 = test: MIC, tigecycline-resistant clinical isolate; format: cell-based
Experimental: as §1

E. coli 1N31 = test: MIC, tigecycline-resistant clinical isolate; format: cell-based
Experimental: as §1

E. coli 2W25 = test: MIC, tigecycline-resistant clinical isolate; format: cell-based
Experimental: as §1

[4] = Hydrophobicity by RP-HPLC (percent acetonitrile at elution); format: physicochemical; conditions: acetonitrile in water, 0.1% (v/v) TFA, higher percent = higher hydrophobicity
Experimental: All peptides used in this study were synthesized by GL Biochem (Shanghai, China) using a solid phase peptide synthesis (SPPS) method, and their accurate molecular weights were determined by matrix-assisted laser desorption/ionization time-of-flight mass spectrometry (MALDI-TOF MS). The peptide purity (>95%) and retention time were determined by reversed-phase high-performance liquid chromatography (HPLC).
A collection of tryptophan-rich linear peptides on the basis of MP196 (RWRWRW-NH2) was designed by increasing peptide length or positive charge or hydrophobicity, replacing amino acids and/or N-terminal acetylation (Table 1). These peptides were synthesized via solid-phase peptide synthesis (SPPS), purified by reverse-phase high-performance liquid chromatography (RP-HPLC) (Figure S1) and validated by matrix-assisted laser desorption/ionization time-of-flight mass spectrometry (MALDI-TOF MS) (Figure S2). […] All engineered peptides belong to cationic AMPs, with 3 or 6 net charges. The percentage of acetonitrile at RP-HPLC elution was regarded as a relative measure of peptides’ hydrophobicity. […] The hydrophobicity order was listed as follows: WRK-12 > WL-9 > WR-6 > WV-9 > KW-6 > WKK-12 > WR-12 > MP196 > WK-6.

RBCs = conditions: cited from earlier work
[5] = ref [19]; cited from earlier work
Description: Antimicrobial peptides (AMPs), also named host defense peptides, are originated from various organisms and are important immune modulation molecules that protect the host from the invading pathogens. […] However, the high cost of peptides, the lability to proteases, less bioavailable and nonspecific toxicity still hinder these AMPs in clinical practice. A more rational design of AMPs contributes to improving their stability and antibacterial activity. ...

[6] = Staphylococcus aureus, MRSA T144, broth micro-dilution CLSI 2018, MHB, 18 h, 37 °C, read-out: MIC
[7] = Escherichia coli, E. coli 1F28 (tet(X4)), broth micro-dilution CLSI 2018, MHB, 18 h, 37 °C, read-out: MIC
[8] = Escherichia coli, E. coli B3-1 (tet(X4)), broth micro-dilution CLSI 2018, MHB, 18 h, 37 °C, read-out: MIC
[9] = Escherichia coli, Table 2, E. coli B2 (mcr-1 + blaNDM-5), broth micro-dilution CLSI 2018, MHB, 18 h, 37 °C, read-out: MIC
[10] = Enterococcus faecalis, VRE, 18 h
[11] = Escherichia coli, ATCC25922, 18 h
[12] = Staphylococcus aureus, ATCC29213, 18 h
[13] = S. aureus 215 (cfr + LZD^R), broth micro-dilution CLSI 2018, MHB, 37 °C
[14] = MDR B2 (mcr-1 + blaNDM-5, 18 h)

Compound `CC1(C)S[C@@H]2[C@H](NC(=O)[C@H](N)c3ccccc3)C(=O)N2[C@H]1C(=O)O` [AMP, ampicillin] has an MIC (MRSA T144; [6]) of 32 µg/mL (≈ 91.6 µM), an MIC (E. faecalis A4 (VRE); Enterococcus faecalis, E. faecalis A4 (VRE), broth micro-dilution CLSI 2018, MHB, 18 h, 37 °C, read-out: MIC) of 32 µg/mL (≈ 91.6 µM) and an MIC (E. coli 1F28 (tet(X4)); [7]) of over 128 µg/mL. For the same compound, the MIC (E. coli B3-1 (tet(X4)); [8]) was over 128 µg/mL, the MIC (E. coli ATCC 25922; Escherichia coli, ATCC25922, E. coli ATCC 25922, broth micro-dilution CLSI 2018, MHB, 18 h, 37 °C, read-out: MIC) was 8 µg/mL (≈ 22.9 µM) and the MIC ([1]; Staphylococcus aureus) was 64 µg/mL (≈ 183 µM). The MIC [2, 9] was over 128 µg/mL, the MIC (S. aureus ATCC 29213; Staphylococcus aureus, ATCC29213, S. aureus ATCC 29213, broth micro-dilution CLSI 2018, MHB, 18 h, 37 °C, read-out: MIC) was 0.25 µg/mL (≈ 0.715 µM) and the MIC ([3]; Salmonella enterica, S. enteritidis ATCC 13076, broth micro-dilution CLSI 2018, MHB, 18 h, 37 °C, read-out: MIC) was 8 µg/mL (≈ 22.9 µM).
Compound `CN(C)c1cc(NC(=O)CNC(C)(C)C)c(O)c2c1C[C@H]1C[C@H]3[C@H](N(C)C)C(O)=C(C(N)=O)C(=O)[C@@]3(O)C(O)=C1C2=O` [TIG, tigecycline, reference compound] has an MIC (MRSA T144; [6]) of 2 µg/mL (≈ 3.41 µM), an MIC (E. coli 1N28; Escherichia coli, E. coli 1N28, nasal swab, tigecycline-resistant clinical isolate, broth micro-dilution, read-out: MIC) of 32 µg/mL (≈ 54.6 µM) and an MIC (E. coli 2A19; Escherichia coli, E. coli 2A19, tigecycline-resistant clinical isolate, broth micro-dilution, read-out: MIC) of 8 µg/mL (≈ 13.7 µM). The MIC (E. coli 1F16; Escherichia coli, E. coli 1F16, feces, tigecycline-resistant clinical isolate, broth micro-dilution, read-out: MIC) was over 64 µg/mL, the MIC (Shigella 1F25; read-out: MIC) was 8 µg/mL (≈ 13.7 µM) and the MIC (E. coli 1F31; Escherichia coli, E. coli 1F31, tigecycline-resistant clinical isolate, broth micro-dilution, read-out: MIC) was 32 µg/mL (≈ 54.6 µM). It also gave an MIC (E. coli 1C1; Escherichia coli, E. coli 1C1, dust, tigecycline-resistant clinical isolate, broth micro-dilution, read-out: MIC) of 32 µg/mL (≈ 54.6 µM), an MIC (E. coli 1A34; Escherichia coli, E. coli 1A34, anal swab, tigecycline-resistant clinical isolate, broth micro-dilution, read-out: MIC) of 16 µg/mL (≈ 27.3 µM) and an MIC (E. coli 1N31; Escherichia coli, E. coli 1N31, tigecycline-resistant clinical isolate, broth micro-dilution, read-out: MIC) of 128 µg/mL (≈ 219 µM). It also gave an MIC (E. coli 2W25; Escherichia coli, E. coli 2W25, water, tigecycline-resistant clinical isolate, broth micro-dilution, read-out: MIC) of 64 µg/mL (≈ 109 µM), an MIC (E. faecalis A4 (VRE); [10]) of 0.125 µg/mL (≈ 0.213 µM) and an MIC (E. coli 1F28 (tet(X4)); [7]) of 32 µg/mL (≈ 54.6 µM). It also gave an MIC (E. coli B3-1 (tet(X4)); [8]) of 32 µg/mL (≈ 54.6 µM), an MIC (E. coli ATCC 25922; [11]) of 0.125 µg/mL (≈ 0.213 µM) and an MIC ([1]; Staphylococcus aureus) of 1 µg/mL (≈ 1.71 µM). The MIC [2, 9] was 2 µg/mL, the MIC (S. aureus ATCC 29213; [12]) was 0.125 µg/mL (≈ 0.213 µM) and the MIC ([3]; Salmonella enterica, 18 h) was 0.125 µg/mL (≈ 0.213 µM).
`CN[C@H](CC(C)C)C(=O)N[C@H]1C(=O)N[C@@H](CC(N)=O)C(=O)N[C@H]2C(=O)N[C@H]3C(=O)N[C@H](C(=O)N[C@H](C(=O)O)c4cc(O)cc(O)c4-c4cc3ccc4O)[C@H](O)c3ccc(c(Cl)c3)Oc3cc2cc(c3O[C@@H]2O[C@H](CO)[C@@H](O)[C@H](O)[C@H]2O[C@H]2C[C@](C)(N)[C@H](O)[C@H](C)O2)Oc2ccc(cc2Cl)[C@H]1O` [VAN, vancomycin] showed an MIC (MRSA T144; Staphylococcus aureus, MRSA, 18 h) of 1 µg/mL (≈ 0.69 µM), an MIC (E. faecalis A4 (VRE); [10]) of over 128 µg/mL and an MIC (E. coli 1F28 (tet(X4)); Escherichia coli, 18 h) of 128 µg/mL (≈ 88.3 µM). For the same compound, the MIC (E. coli B3-1 (tet(X4)); Escherichia coli, 18 h) was 64 µg/mL (≈ 44.2 µM), the MIC (E. coli ATCC 25922; [11]) was 128 µg/mL (≈ 88.3 µM) and the MIC ([1]; Staphylococcus aureus) was 1 µg/mL (≈ 0.69 µM). The MIC ([2]; Escherichia coli, 18 h) was 128 µg/mL (≈ 88.3 µM), the MIC (S. aureus ATCC 29213; [12]) was 0.5 µg/mL (≈ 0.345 µM) and the MIC ([3]; Salmonella enterica, 18 h) was 128 µg/mL (≈ 88.3 µM).
In the case of Ac-WKVKWKVKWKVK-NH2 [WKK-12], the MIC (MRSA T144; T144, 18 h) is reported as 64 µg/mL, the MIC (E. coli 1N28; 1N28, 4 h) is reported as 64 µg/mL and the MIC (E. coli 2A19; 2A19, 4 h) is reported as 128 µg/mL. The MIC (E. coli 1F16; 1F16, 4 h) was 64 µg/mL, the MIC (Shigella 1F25) was 64 µg/mL and the MIC (E. coli 1F31; 1F31, 4 h) was 64 µg/mL. The MIC (E. coli 1C1; 1C1, 4 h) was 64 µg/mL, the MIC (E. coli 1A34; 1A34, 4 h) was 64 µg/mL and the MIC (E. coli 1N31; 1N31, 4 h) was 64 µg/mL. It also gave an MIC (E. coli 2W25; 2W25, 4 h) of 64 µg/mL, an MIC (E. faecalis A4 (VRE); A4 (VRE, 18 h)) of 64 µg/mL and an MIC (E. coli 1F28 (tet(X4)); 1F28 (tet(X4, 18 h))) of 64 µg/mL. For the same compound, the MIC (E. coli B3-1 (tet(X4)); B3-1 (tet(X4, 18 h))) was 64 µg/mL, the “H (hydrophobicity, percent of acetonitrile at HPLC elution)” value [4] was 31.424 percent acetonitrile and the MIC (E. coli ATCC 25922; ATCC 25922, 18 h) was 128 µg/mL. It also gave an MIC [1, 13] of 64 µg/mL, an MIC [2, 14] of 64 µg/mL and an MIC (S. aureus ATCC 29213; ATCC 29213, 18 h) of 128 µg/mL. It also gave an MIC ([3]; ATCC 13076, 18 h) of 64 µg/mL.
KWKWKW-NH2 [KW-6] showed an MIC [2, 14] of over 64 µg/mL.
For RWRWRW-NH2 [MP196], the “hemolysis to RBCs” value (RBCs) is given as “high hemolysis”, the in vivo stability [5] is given as “low in vivo stability” and the MIC [2, 14] is given as over 64 µg/mL.
WKVWKVWKV-NH2 [WV-9] showed an MIC [2, 14] of over 64 µg/mL.
Compound WKWKWK-NH2 [WK-6] has an MIC [2, 14] of over 64 µg/mL.
Work on WRLRWRLRWRLR-NH2 [WR-12] yielded an MIC [2, 14] of 2 µg/mL.
In the case of WRLWRLWRL-NH2 [WL-9], the MIC [2, 14] is reported as 8 µg/mL.
Work on WRWRWR-NH2 [WR-6] yielded an MIC [2, 14] of over 64 µg/mL.
colistin showed an MIC (MRSA T144; MRSA T144, broth micro-dilution CLSI 2018, MHB, 18 h, 37 °C) of 128 µg/mL, an MIC (E. faecalis A4 (VRE); E. faecalis A4 (VRE), broth micro-dilution CLSI 2018, MHB, 18 h, 37 °C) of 128 µg/mL and an MIC (E. coli 1F28 (tet(X4)); E. coli 1F28 (tet(X4)), broth micro-dilution CLSI 2018, MHB, 18 h, 37 °C) of 0.25 µg/mL. The MIC (E. coli B3-1 (tet(X4)); E. coli B3-1 (tet(X4)), broth micro-dilution CLSI 2018, MHB, 18 h, 37 °C) was 0.25 µg/mL, the MIC (E. coli ATCC 25922; E. coli ATCC 25922, broth micro-dilution CLSI 2018, MHB, 18 h, 37 °C) was 0.5 µg/mL and the MIC [1, 13] was 64 µg/mL. It also gave an MIC ([2]; Table 2, E. coli B2 (mcr-1 + blaNDM-5), broth micro-dilution CLSI 2018, MHB, 18 h, 37 °C) of 8 µg/mL, an MIC (S. aureus ATCC 29213; S. aureus ATCC 29213, broth micro-dilution CLSI 2018, MHB, 18 h, 37 °C) of 16 µg/mL and an MIC ([3]; S. enteritidis ATCC 13076, broth micro-dilution CLSI 2018, MHB, 18 h, 37 °C) of 0.25 µg/mL.
